Patent US20260132160A1, “IRON REPLACEMENT TREATMENTS” (The General Hospital Corporation, priority 2022, published 2026)
Entries after “also recorded” stand apart in the source; their conditions may differ.

Tests used:
[1] = Stability of Fe-BBG against trans-chelation by endogenous chelators (UV-vis); type: physicochemical
Source text: In other words, the ligand BBG binds to Fe^3+ with an estimated 230±40 times higher affinity than citrate.

[2] = Labile iron in serum after i.v. injection (dihydrorhodamine 123 oxidation); type: in vivo, mouse
Procedure: These are the same serum samples as in FIG. 9. The assay was performed as described in Blood 2003, 102 (7), 2670-2677.
To quantify labile iron released by Fe-BBG after intravenous injection, male C57BL/6 mice received either 0.01 mmol Fe-BBG/kg (0.56 μg Fe per g body weight), 0.1 mmol Fe-BBG/kg (5.6 μg Fe per g body weight), or placebo (saline vehicle) via tail vein injection and were euthanized either 5 min, 60 min or 100 min post-injection. Blood serum was harvested and labile Fe in each sample quantified by spectrophotometrically monitoring the rate of dihydrorhodamine 123 oxidation under redox forcing conditions, as reported in Blood 2003, 102 (7), 2670-2677 and described below:
Quadruplicates of 20 μL serum were transferred to clear-bottom 96-well plates. To 2 of the wells was added 180 μL iron-free HEPES buffered saline (HBS) (preincubated at 37° C.) containing 40 μM ascorbate and 50 µM dihydrorhodamine 123 (DHR). […] The kinetics of fluorescence increase were followed at 37° C. in a Molecular Devices FlexStation 3 microplate reader with 485/538 nm excitation/emission filter pair, for 40 minutes, with readings every 2 minutes. The slopes (R) of DHR fluorescence intensity with time were calculated from measurements taken between 16 and 40 minutes and are given as FU·minute^−1 (fluorescence units per minute). […]

normal male C57BL/6 mice = experiment: Serum nonheme iron parameters after i.v. injection (ferrozine assay); type: in vivo, mouse
Procedure: The in vivo efficacy of Fe-BBG as a direct-to-transferrin Fe replacement drug was preliminary evaluated in normal male C57BL/6mice. Mice received either 0.01 mmol Fe-BBG/kg (0.56 μg Fe per g body weight), 0.1 mmol Fe-BBG/kg (5.6 μg Fe per g body weight), or placebo (saline vehicle) via tail vein injection and were euthanized either 5 min, 60 min or 100 min post-injection. Serum nonheme iron parameters were then quantified using the spectrophotometric ferrozine assay.
FIG. 9 compares serum iron, total iron binding capacibity (TIBC), and unbound iron binding capacity (UIBC), recorded in mice treated with placebo and in serum harvested either 5 min, 60 min, or 100 min after Fe-BBG injection. The percentage transferrin saturation (% TSAT) was calculated at the 60 min and 100 min time points, at which point Fe-BBG and the BBG ligand remaining after trans-chelation with apo-transferrin had diminished to levels that will not interfere with the spectrophotometric assay.

[3] = 0.56 or 5.6 μg Fe per g i.v., 5, 60, 100 min, vs placebo

stability against trans-chelation by endogenous chelators [1]: stable against trans-chelation reactions
Kcomp for challenge with citrate ([1]; 0-10 molar equivalents citrate, absorbance at 465 nm, pH 7.4): 0.006±0.002
UV-vis traces in presence of competing chelators ([1]; 0.1 mM Fe-BBG, up to 100 molar equivalents bicarbonate, acetate, lactate, phosphate, pH 7.4 50 mM HEPES): remain unchanged
labile Fe concentration in serum ([2]; 5 min after injection of 5.6 μg Fe/g): < 0.2 µM
Structure (SMILES): O.O.O=C([O-])CC[C@H]1C(=O)[O][Fe]2[O]c3ccccc3CN1Cc1ccccc1[O]2 [Fe-BBG]
labile iron release in vivo ([2]; 0.56 or 5.6 μg Fe per g, 5, 60, 100 min): does not contribute detectable quantities of labile Fe; also recorded: does not release labile iron in vivo
serum iron (normal male C57BL/6 mice; [3]): rapidly raises
total iron binding capacity (TIBC) (normal male C57BL/6 mice; [3]): rapidly raises; also recorded: does not decrease
unbound iron binding capacity (UIBC) (normal male C57BL/6 mice; 0.56 or 5.6 μg Fe per g i.v., vs placebo): does not reduce UIBC significantly
percentage transferrin saturation (% TSAT) (normal male C57BL/6 mice; 60 and 100 min, vs placebo): elevates % TSAT significantly
total serum nonheme Fe relative to placebo treated mice (normal male C57BL/6 mice; 5 min after 5.6 μg Fe/g): 25 fold
